How the values were obtained:
Experiment in all cases: relative viability (nuclei count vs DMSO), 5 days (fraction); higher = more cells survive
[1] = compound: Cc1ccc(-n2nc(C(C)(C)C)cc2NC(=O)Nc2ccc(OCCN3CCOCC3)c3ccccc23)cc1 [Doramapimod] + CCNC(=O)c1noc(-c2cc(C(C)C)c(O)cc2O)c1-c1ccc(CN2CCOCC2)cc1 [Luminespib] (partner 0.01 µM)
Procedure, shortened: (§1)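 A single step with final 0.05% Triton X-100, 1% formaldehyde and 1 ug/ml Hoechst fixed the cells and stained nuclei 5 days after treatment. Lung cancer cell lines in 1536-well plates had been treated by pin tool the day after seeding with one drug alone or a fixed anchor-drug dose plus five library-drug doses (not always all listed) in √10 steps, and nuclei were counted on 4× images. Relative viability is the ratio of nuclei in treated wells to nuclei in vehicle wells, taken as the median of duplicate plates.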

[2] = compound: Cn1c(Nc2ccc(C(F)(F)F)cc2)nc2cc(Oc3ccnc(-c4ncc(C(F)(F)F)[nH]4)c3)ccc21 [RAF265] + N=C(N)NC(=N)NCCc1ccccc1 [Phenformin] (partner 250 µM)
Procedure, shortened: as §1

[3] = compound: Cn1c(Nc2ccc(C(F)(F)F)cc2)nc2cc(Oc3ccnc(-c4ncc(C(F)(F)F)[nH]4)c3)ccc21 [RAF265] + C[C@@H](Oc1cc(-c2cnn(C3CCNCC3)c2)cnc1N)c1c(Cl)ccc(F)c1Cl [Crizotinib] (partner 1 µM)
Procedure, shortened: as §1

[4] = compound: Cn1c(Nc2ccc(C(F)(F)F)cc2)nc2cc(Oc3ccnc(-c4ncc(C(F)(F)F)[nH]4)c3)ccc21 [RAF265] + CCNC(=O)c1noc(-c2cc(C(C)C)c(O)cc2O)c1-c1ccc(CN2CCOCC2)cc1 [Luminespib] (partner 0.01 µM)
Procedure, shortened: as §1

Row | Cell Line | relative viability ([1]; first compound 0.02 µM) | relative viability ([1]; first compound 0.06325 µM) | relative viability ([1]; first compound 0.2 µM) | relative viability ([1]; first compound 0.6325 µM) | relative viability ([1]; first compound 2 µM) | relative viability ([2]; first compound 0.01 µM) | relative viability ([2]; first compound 0.03162 µM) | relative viability ([2]; first compound 0.1 µM) | relative viability ([2]; first compound 0.3162 µM) | relative viability ([2]; first compound 1 µM) | relative viability ([3]; first compound 0.01 µM) | relative viability ([3]; first compound 0.03162 µM) | relative viability ([3]; first compound 0.1 µM) | relative viability ([3]; first compound 0.3162 µM) | relative viability ([3]; first compound 1 µM) | relative viability ([4]; first compound 0.01 µM) | relative viability ([4]; first compound 0.03162 µM) | relative viability ([4]; first compound 0.1 µM) | relative viability ([4]; first compound 0.3162 µM) | relative viability ([4]; first compound 1 µM)
1 | COR-L 105 | 0.883 | 0.73 | 0.645 | 0.851 | 0.719 | 0.463 | 0.621 | 0.457 | 0.3 | 0.358 | 0.844 | 0.689 | 0.755 | 0.503 | 0.297 | 0.826 | 0.821 | 0.666 | 0.766 | 0.385
2 | NCI-H1993 | 1.85 | 0.87 | 0.64 | 0.975 | 0.744 | 0.455 | 0.586 | 0.502 | 0.603 | 0.479 | 0.725 | 0.85 | 0.993 | 0.759 | 0.758 | 0.852 | 0.75 | 0.9 | 1.42 | 0.774
3 | NCI-H1437 | 1.2 | 1.21 | 1.16 | 1.15 | 1.2 | 0.352 | 0.388 | 0.287 | 0.329 | 0.242 | 0.902 | 0.808 | 0.998 | 1.05 | 0.768 | 1.02 | 1.07 | 1.08 | 1.23 | 1.11
4 | NCI-H838 | 0.406 | 0.372 | 0.245 | 0.347 | 0.268 | 0.733 | 0.606 | 0.521 | 0.499 | 0.517 | 0.807 | 0.855 | 0.989 | 0.911 | 0.718 | 0.284 | 0.226 | 0.344 | 0.309 | 0.288
5 | NCI-H1666 | 1.02 | 1.06 | 1.06 | 1.06 | 1 | 0.597 | 0.343 | 0.567 | 0.579 | 0.559 | 1.11 | 1.08 | 1.06 | 0.971 | 0.651 | 1.11 | 1.01 | 1.1 | 1.05 | 0.977
6 | NCI-H1944 | 0.626 | 0.777 | 0.718 | 0.769 | 0.655 | 0.192 | 0.202 | 0.184 | 0.168 | 0.143 | 1.09 | 1.26 | 1.08 | 0.794 | 0.664 | 0.858 | 0.71 | 0.726 | 0.529 | 0.332
7 | NCI-H2023 | 0.656 | 0.77 | 0.74 | 0.929 | 0.614 | 0.421 | 0.407 | 0.391 | 0.353 | 0.322 | 0.624 | 0.58 | 0.88 | 0.668 | 0.478 | 0.802 | 0.78 | 0.674 | 0.837 | 0.454
8 | NCI-H1755 | 0.354 | 0.426 | 0.411 | 0.431 | 0.22 | 0.612 | 0.59 | 0.571 | 0.459 | 0.432 | 0.837 | 0.757 | 0.813 | 0.685 | 0.476 | 0.627 | 0.45 | 0.351 | 0.262 | 0.398
